Converted amounts (≈) assume the structure as drawn. Like-named read-outs stand apart in the source and are kept apart here.
Tests used:
Experiment in all cases: Antibiotic activity (MIC), Table 1
Assay type in all cases: cell-based
S. aureus 209P JC-1 = test system: S. aureus 209P JC-1
S. faecalis Imanari = test system: S. faecalis Imanari
B. subtilis ATCC 6633 = test system: B. subtilis ATCC 6633
E. coli NIHJ JC-2 = test system: E. coli NIHJ JC-2
K. pneumoniae PCI 602 = test system: K. pneumoniae PCI 602
E. cloacae IID 977 = test system: E. cloacae IID 977
S. marcescens NHL = test system: S. marcescens NHL
P. inconstans 93 = test system: P. inconstans 93
P. vulgaris IID 874 = test system: P. vulgaris IID 874
P. aeruginosa NCTC 10490 = test system: P. aeruginosa NCTC 10490
P. cepacia 11D 1340 = test system: P. cepacia 11D 1340
P. maltophilia IID 1275 = test system: P. maltophilia IID 1275
P. putida IID 5121 = test system: P. putida IID 5121
E. coli ML 1410 = test system: E. coli ML 1410
[1] = test system: P. aeruginosa TI 13 (APH(3')-I)
[2] = test system: P. aerugionosa TK-157 (APH(3')-II)
[3] = test system: K. pneumoniae 4687 (AAD(2"))
[4] = test system: P. aeruginosa GN315 (AAC(6')-IV)
E. coli JR 88 (AAC(3)-I) = test system: E. coli JR 88 (AAC(3)-I)
[5] = test system: P. aeruginosa 99 (AAC(3)-I)
E. coli R176 (AAC(3)-II) = test system: E. coli R176 (AAC(3)-II)
[6] = test system: P. aeruginosa RST-1 (AAC(3)-III)
[7] = test system: P. inconstans GN1554 (AAC(2'))
[8] = test system: E. coli ML 1410 R102 (AAD(2")); settings: Escherichia coli
[9] = test system: E. coli ML 1410 R82 (AAD(3")); settings: Escherichia coli
[10] = Staphylococcus aureus, 209P, read-out: MIC
[11] = Enterococcus faecalis, read-out: MIC
[12] = Bacillus subtilis, ATCC6633, B. subtilis ATCC 6633, read-out: MIC
[13] = Escherichia coli, NIHJJC2, E. coli NIHJ JC-2, read-out: MIC
[14] = Klebsiella pneumoniae, PCI602, K. pneumoniae PCI 602, read-out: MIC
[15] = Enterobacter cloacae, IID977, E. cloacae IID 977, read-out: MIC
[16] = Serratia marcescens, read-out: MIC
[17] = Providencia alcalifaciens, 93, P. inconstans 93, read-out: MIC
[18] = Proteus vulgaris, IID874, P. vulgaris IID 874, read-out: MIC
[19] = Pseudomonas aeruginosa, NCTC10490, P. aeruginosa NCTC 10490, read-out: MIC
[20] = Burkholderia cepacia, 11D1340, read-out: MIC
[21] = Stenotrophomonas maltophilia, IID1275, P. maltophilia IID 1275, read-out: MIC
[22] = Pseudomonas putida, IID5121, P. putida IID 5121, read-out: MIC
[23] = Escherichia coli, ML1410, E. coli ML 1410, read-out: MIC
[24] = Klebsiella pneumoniae, read-out: MIC
[25] = Pseudomonas aeruginosa, GN315, P. aeruginosa GN315 (AAC(6')-IV), read-out: MIC
[26] = Escherichia coli, read-out: MIC
[27] = Pseudomonas aeruginosa, read-out: MIC
[28] = Providencia alcalifaciens, GN1554, P. inconstans GN1554 (AAC(2')), read-out: MIC

## CNC1C(O)CC(N)C(OC2OC(C(C)N)CCC2NC(=O)C[C@@H](N)CCCN)C1O (stereo partly drawn) [2'-N-β-Lysyl 5-de-O-Me KA-6606II, 2'-N-(L-β-lysyl)-5-de-O-methyl-KA-6606II]
S. aureus 209P JC-1
  MIC: 0.78 µg/mL (≈ 1.75 µM)
S. faecalis Imanari
  MIC: 3.13 µg/mL (≈ 7.01 µM)
B. subtilis ATCC 6633; B. subtilis ATCC 6633
  MIC: 3.13 µg/mL (≈ 7.01 µM)
E. coli NIHJ JC-2; E. coli NIHJ JC-2
  MIC: 3.13 µg/mL (≈ 7.01 µM)
K. pneumoniae PCI 602; K. pneumoniae PCI 602
  MIC: 0.78 µg/mL (≈ 1.75 µM)
E. cloacae IID 977; E. cloacae IID 977
  MIC: 12.5 µg/mL (≈ 28 µM)
S. marcescens NHL
  MIC: 3.13 µg/mL (≈ 7.01 µM)
P. inconstans 93; P. inconstans 93
  MIC: 1.56 µg/mL (≈ 3.49 µM)
P. vulgaris IID 874; P. vulgaris IID 874
  MIC: 25 µg/mL (≈ 56 µM)
P. aeruginosa NCTC 10490; P. aeruginosa NCTC 10490
  MIC: 25 µg/mL (≈ 56 µM)
P. cepacia 11D 1340
  MIC: > 100 µg/mL
P. maltophilia IID 1275; P. maltophilia IID 1275
  MIC: 1.56 µg/mL (≈ 3.49 µM)
P. putida IID 5121; P. putida IID 5121
  MIC: 25 µg/mL (≈ 56 µM)
E. coli ML 1410; E. coli ML 1410
  MIC: 6.25 µg/mL (≈ 14 µM)
[1]
  MIC: 50 µg/mL (≈ 112 µM)
[2]
  MIC: 50 µg/mL (≈ 112 µM)
[3]
  MIC: 12.5 µg/mL (≈ 28 µM)
[4]; P. aeruginosa GN315 (AAC(6')-IV)
  MIC: > 100 µg/mL
E. coli JR 88 (AAC(3)-I)
  MIC: 12.5 µg/mL (≈ 28 µM)
[5]
  MIC: > 100 µg/mL
E. coli R176 (AAC(3)-II)
  MIC: 6.25 µg/mL (≈ 14 µM)
[6]
  MIC: 100 µg/mL (≈ 224 µM)
[7]; P. inconstans GN1554 (AAC(2'))
  MIC: 1.56 µg/mL (≈ 3.49 µM)

## CNCC1CCC(NC(=O)C[C@@H](N)CCCN)C(OC2C(N)CC(OC)C(NC)C2O)O1 (stereo partly drawn) [2'-N-β-Lysyl KA-7038VI, 2'-N-(L-β-lysyl)-KA-7038VI]
S. aureus 209P JC-1; [10]
  MIC: 0.78 µg/mL (≈ 1.69 µM)
S. faecalis Imanari; [11]
  MIC: 1.56 µg/mL (≈ 3.39 µM)
B. subtilis ATCC 6633; [12]
  MIC: 3.13 µg/mL (≈ 6.8 µM)
E. coli NIHJ JC-2; [13]
  MIC: 1.56 µg/mL (≈ 3.39 µM)
K. pneumoniae PCI 602; [14]
  MIC: 0.78 µg/mL (≈ 1.69 µM)
E. cloacae IID 977; [15]
  MIC: 6.25 µg/mL (≈ 13.6 µM)
S. marcescens NHL; [16]
  MIC: 0.78 µg/mL (≈ 1.69 µM)
P. inconstans 93; [17]
  MIC: 0.78 µg/mL (≈ 1.69 µM)
P. vulgaris IID 874; [18]
  MIC: 25 µg/mL (≈ 54.3 µM)
P. aeruginosa NCTC 10490; [19]
  MIC: 12.5 µg/mL (≈ 27.1 µM)
P. cepacia 11D 1340; [20]
  MIC: > 100 µg/mL
P. maltophilia IID 1275; [21]
  MIC: 1.56 µg/mL (≈ 3.39 µM)
P. putida IID 5121; [22]
  MIC: 12.5 µg/mL (≈ 27.1 µM)
E. coli ML 1410; [23]
  MIC: 1.56 µg/mL (≈ 3.39 µM)
[1]; Pseudomonas aeruginosa
  MIC: 25 µg/mL (≈ 54.3 µM)
[2]; read-out: MIC
  MIC: 25 µg/mL (≈ 54.3 µM)
[3]; [24]
  MIC: 3.13 µg/mL (≈ 6.8 µM)
[4]; [25]
  MIC: 100 µg/mL (≈ 217 µM)
E. coli JR 88 (AAC(3)-I); [26]
  MIC: 3.13 µg/mL (≈ 6.8 µM)
[5]; [27]
  MIC: > 100 µg/mL
E. coli R176 (AAC(3)-II); [26]
  MIC: 1.56 µg/mL (≈ 3.39 µM)
[6]; [27]
  MIC: > 100 µg/mL
[7]; [28]
  MIC: 0.78 µg/mL (≈ 1.69 µM)

## CNC1C(O)CC(N)C(OC2OC(C(C)N)CCC2NC(=O)C[C@@H](N)CCCN)C1O (stereo partly drawn) [2'-N-β-Lysyl 5-de-O-Me KA-6606VIII, 2'-N-(L-β-lysyl)-5-de-O-methyl-KA-6606VIII]
S. aureus 209P JC-1; [10]
  MIC: 0.78 µg/mL (≈ 1.75 µM)
S. faecalis Imanari; [11]
  MIC: 3.13 µg/mL (≈ 7.01 µM)
B. subtilis ATCC 6633; [12]
  MIC: 3.13 µg/mL (≈ 7.01 µM)
E. coli NIHJ JC-2; [13]
  MIC: 6.25 µg/mL (≈ 14 µM)
K. pneumoniae PCI 602; [14]
  MIC: 0.78 µg/mL (≈ 1.75 µM)
E. cloacae IID 977; [15]
  MIC: 25 µg/mL (≈ 56 µM)
S. marcescens NHL; [16]
  MIC: 6.25 µg/mL (≈ 14 µM)
P. inconstans 93; P. inconstans 93
  MIC: 3.13 µg/mL (≈ 7.01 µM)
P. vulgaris IID 874; P. vulgaris IID 874
  MIC: 100 µg/mL (≈ 224 µM)
P. aeruginosa NCTC 10490; [19]
  MIC: 50 µg/mL (≈ 112 µM)
P. cepacia 11D 1340; [20]
  MIC: > 100 µg/mL
P. maltophilia IID 1275; [21]
  MIC: 1.56 µg/mL (≈ 3.49 µM)
P. putida IID 5121; [22]
  MIC: 12.5 µg/mL (≈ 28 µM)
E. coli ML 1410; [23]
  MIC: 6.25 µg/mL (≈ 14 µM)
[1]; Pseudomonas aeruginosa
  MIC: 50 µg/mL (≈ 112 µM)
[2]; read-out: MIC
  MIC: 50 µg/mL (≈ 112 µM)
[3]; [24]
  MIC: 12.5 µg/mL (≈ 28 µM)
[4]; [25]
  MIC: > 100 µg/mL
E. coli JR 88 (AAC(3)-I); [26]
  MIC: 6.25 µg/mL (≈ 14 µM)
[5]; [27]
  MIC: > 100 µg/mL
E. coli R176 (AAC(3)-II); [26]
  MIC: 6.25 µg/mL (≈ 14 µM)
[6]; [27]
  MIC: > 100 µg/mL
[7]; [28]
  MIC: 1.56 µg/mL (≈ 3.49 µM)

## CNC1C(OC)CC(N)C(OC2OC(C(C)N)CCC2NC(=O)C[C@@H](N)CCCN)C1O (stereo partly drawn) [2'-N-β-Lysyl KA-6606VIII, 2'-N-(L-β-lysyl)-KA-6606VIII]
S. aureus 209P JC-1; [10]
  MIC: 0.39 µg/mL (≈ 0.847 µM)
S. faecalis Imanari; [11]
  MIC: 1.56 µg/mL (≈ 3.39 µM)
B. subtilis ATCC 6633; [12]
  MIC: 3.13 µg/mL (≈ 6.8 µM)
E. coli NIHJ JC-2; [13]
  MIC: 1.56 µg/mL (≈ 3.39 µM)
K. pneumoniae PCI 602; [14]
  MIC: 0.78 µg/mL (≈ 1.69 µM)
E. cloacae IID 977; [15]
  MIC: 3.13 µg/mL (≈ 6.8 µM)
S. marcescens NHL; [16]
  MIC: 0.2 µg/mL (≈ 0.434 µM)
P. inconstans 93; [17]
  MIC: 0.39 µg/mL (≈ 0.847 µM)
P. vulgaris IID 874; [18]
  MIC: 12.5 µg/mL (≈ 27.1 µM)
P. aeruginosa NCTC 10490; [19]
  MIC: 6.25 µg/mL (≈ 13.6 µM)
P. cepacia 11D 1340; [20]
  MIC: > 100 µg/mL
P. maltophilia IID 1275; [21]
  MIC: 1.56 µg/mL (≈ 3.39 µM)
P. putida IID 5121; [22]
  MIC: 3.13 µg/mL (≈ 6.8 µM)
E. coli ML 1410; [23]
  MIC: 0.78 µg/mL (≈ 1.69 µM)
[1]; Pseudomonas aeruginosa
  MIC: 25 µg/mL (≈ 54.3 µM)
[2]; read-out: MIC
  MIC: 25 µg/mL (≈ 54.3 µM)
[8]
  MIC: 0.39 µg/mL (≈ 0.847 µM)
[3]; [24]
  MIC: 0.78 µg/mL (≈ 1.69 µM)
[9]
  MIC: 0.39 µg/mL (≈ 0.847 µM)
[4]; [25]
  MIC: 25 µg/mL (≈ 54.3 µM)
E. coli JR 88 (AAC(3)-I); [26]
  MIC: 0.78 µg/mL (≈ 1.69 µM)
[5]; [27]
  MIC: 50 µg/mL (≈ 109 µM)
E. coli R176 (AAC(3)-II); [26]
  MIC: 0.78 µg/mL (≈ 1.69 µM)
[6]; [27]
  MIC: 100 µg/mL (≈ 217 µM)
[7]; [28]
  MIC: 0.2 µg/mL (≈ 0.434 µM)
